Where a name gives a salt, the structure may show the parent alone.
Columns and labels:
FGFR-1 = molecular target: T1, FGFR-1 (Homo sapiens, UniProt P11362); assay: FGFR-1 high ATP kinase assay (TR-FRET); assay type: biochemical; conditions: 2 mM ATP, 15 min pre-incubation; compounds of the invention (Table 1A)
T1 construct: human FGFR-1 from amino acids G400 to R800 as in GenBank entry NM_015850; purchased Proqinase 0101-0000-1; host or cells: SF9 insect cells (baculovirus)

mTOR = molecular target: T2, mTOR (Homo sapiens, UniProt P42345); assay: mTOR kinase assay (TR-FRET, for comparative purposes); assay type: biochemical; conditions: for inhibition at 1 µM: read-out: mTOR % inhibition @ 1 μM, mean inhibition at 1 μM test compound, 40 μM ATP
T2 construct: human mTOR amino acids from 1360 to 2549; purchased Invitrogen 4753; host or cells: insect cells

FGFR-3 = molecular target: T3, FGFR-3 (Homo sapiens, UniProt P22607); assay: FGFR-3 kinase assay (TR-FRET); assay type: biochemical; conditions: 10 μM ATP, 15 min pre-incubation; compounds of the invention (Table 2A)
T3 construct: human FGFR-3 from amino acids R397 to T806 as in NCBI/Protein entry NP_000133.1; purchased Proqinase 1068-0000-1; host or cells: SF9 insect cells (baculovirus)

[1] = tested on: Human umbilical vein endothelial cells (HUVEC); assay: Inhibition of hFGF-2 mediated HUVEC proliferation; assay type: cell-based; conditions: 72 h

T1 sequence (P11362 402-822): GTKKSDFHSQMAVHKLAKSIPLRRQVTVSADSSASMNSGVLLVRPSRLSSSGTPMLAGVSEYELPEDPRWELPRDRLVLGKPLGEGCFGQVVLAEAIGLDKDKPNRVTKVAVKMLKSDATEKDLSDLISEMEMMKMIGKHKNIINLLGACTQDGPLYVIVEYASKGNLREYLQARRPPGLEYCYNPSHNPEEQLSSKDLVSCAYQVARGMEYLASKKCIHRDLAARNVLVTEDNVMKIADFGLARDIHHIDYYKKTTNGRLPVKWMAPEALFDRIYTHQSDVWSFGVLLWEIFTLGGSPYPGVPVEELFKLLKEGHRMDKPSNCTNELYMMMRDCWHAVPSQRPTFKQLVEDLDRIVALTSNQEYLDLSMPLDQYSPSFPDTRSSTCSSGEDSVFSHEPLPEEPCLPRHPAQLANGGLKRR
T3 sequence (P22607 397-806): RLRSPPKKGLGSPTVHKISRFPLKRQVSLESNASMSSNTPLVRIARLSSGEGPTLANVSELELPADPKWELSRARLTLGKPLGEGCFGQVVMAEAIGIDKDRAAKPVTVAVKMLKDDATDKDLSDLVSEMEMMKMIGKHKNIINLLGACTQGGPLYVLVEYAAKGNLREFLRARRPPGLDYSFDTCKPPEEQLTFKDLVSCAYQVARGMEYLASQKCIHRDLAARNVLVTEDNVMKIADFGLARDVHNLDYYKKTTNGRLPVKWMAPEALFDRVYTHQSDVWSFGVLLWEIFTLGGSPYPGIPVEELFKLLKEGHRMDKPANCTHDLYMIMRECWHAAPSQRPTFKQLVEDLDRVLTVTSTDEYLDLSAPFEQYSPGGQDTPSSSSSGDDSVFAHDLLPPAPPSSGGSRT
T2 sequence (P42345 1360-2549): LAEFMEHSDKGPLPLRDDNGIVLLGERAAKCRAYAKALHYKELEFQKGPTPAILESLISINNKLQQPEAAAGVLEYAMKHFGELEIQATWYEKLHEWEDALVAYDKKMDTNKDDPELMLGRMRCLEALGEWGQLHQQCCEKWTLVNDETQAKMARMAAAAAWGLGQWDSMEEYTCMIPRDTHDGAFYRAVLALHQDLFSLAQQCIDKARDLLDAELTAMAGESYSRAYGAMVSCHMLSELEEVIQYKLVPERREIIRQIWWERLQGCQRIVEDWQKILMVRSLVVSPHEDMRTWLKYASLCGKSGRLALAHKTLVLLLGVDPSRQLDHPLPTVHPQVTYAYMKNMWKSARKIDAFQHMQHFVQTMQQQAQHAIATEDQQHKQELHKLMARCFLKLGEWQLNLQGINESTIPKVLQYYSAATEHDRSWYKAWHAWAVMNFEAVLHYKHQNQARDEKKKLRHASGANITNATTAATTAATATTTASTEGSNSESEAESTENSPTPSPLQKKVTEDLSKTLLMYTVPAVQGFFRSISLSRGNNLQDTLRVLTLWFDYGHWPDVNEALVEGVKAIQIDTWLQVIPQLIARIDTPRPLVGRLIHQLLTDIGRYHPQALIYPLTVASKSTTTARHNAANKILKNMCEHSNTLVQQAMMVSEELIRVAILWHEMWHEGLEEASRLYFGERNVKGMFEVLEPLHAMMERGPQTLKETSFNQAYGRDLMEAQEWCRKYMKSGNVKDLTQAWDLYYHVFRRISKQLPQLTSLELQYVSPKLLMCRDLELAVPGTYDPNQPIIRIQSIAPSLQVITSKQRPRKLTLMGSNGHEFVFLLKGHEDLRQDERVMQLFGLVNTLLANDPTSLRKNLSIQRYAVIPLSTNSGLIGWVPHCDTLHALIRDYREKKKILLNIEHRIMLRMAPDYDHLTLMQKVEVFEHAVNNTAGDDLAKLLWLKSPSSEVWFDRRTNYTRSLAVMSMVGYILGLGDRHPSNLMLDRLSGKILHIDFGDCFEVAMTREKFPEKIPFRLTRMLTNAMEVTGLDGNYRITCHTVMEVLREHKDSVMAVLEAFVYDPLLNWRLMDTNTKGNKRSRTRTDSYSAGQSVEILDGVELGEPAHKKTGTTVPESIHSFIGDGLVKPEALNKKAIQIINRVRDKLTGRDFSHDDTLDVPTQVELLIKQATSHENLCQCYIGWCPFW

SMILES | IC50 (FGFR-1) | inhibition at 1 µM (mTOR) | IC50 (FGFR-3) | IC50 [1] | mTOR % inhibition @ 1 μM (mTOR; mean inhibition at 1 μM test compound, 40 μM ATP)
CCOCc1c(-c2cc3cc(C)cc(OC)c3s2)c2c(N)ncnn2c1CN1CCN(C(C)=O)CC1 [Example 11, 1-(4-{[4-Amino-6-(ethoxymethyl)-5-(7-methoxy-5-methyl-1-benzothiophen-2-yl)pyrrolo[2,1-f][1,2,4]triazin-7-yl]methyl}piperazin-1-yl)ethanone dihydrochloride] | 6.5 nM | 33.2% |  |  | 
COCc1c(-c2cc3cc(C)cc(OC)c3s2)c2c(N)ncnn2c1CN1CC[C@](C)(N)C1 [Example 14, 7-{[(3S)-3-Amino-3-methylpyrrolidin-1-yl]methyl}-6-(methoxymethyl)-5-(7-methoxy-5-methyl-1-benzothiophen-2-yl)pyrrolo[2,1-f][1,2,4]triazin-4-amine trihydrochloride] |  | 15.7% | 2.5 nM |  | 
COCc1c(-c2cc3cc(C)cc(OC)c3s2)c2c(N)ncnn2c1CN1CCN(C(C)=O)CC1 [Example 16, 1-(4-{[4-Amino-6-(methoxymethyl)-5-(7-methoxy-5-methyl-1-benzothiophen-2-yl)pyrrolo[2,1-f]-[1,2,4]triazin-7-yl]methyl}piperazin-1-yl)ethanone dihydrochloride] |  | 36.9% | 9.4 nM |  | 
COc1cc(C)cc2cc(-c3c(COCCO)c(CN4CCNCC4)n4ncnc(N)c34)sc12 [Example 22, 2-{[4-Amino-5-(7-methoxy-5-methyl-1-benzothiophen-2-yl)-7-(piperazin-1-ylmethyl)pyrrolo[2,1-f]-[1,2,4]triazin-6-yl]methoxy}ethanol dihydrochloride] | 0.9 nM | 17.6% | 4.7 nM |  | 
COc1cc(C)cc2cc(-c3c(COCCN)c(CN4CCNCC4)n4ncnc(N)c34)sc12 [Example 30, 6-[(2-Aminoethoxy)methyl]-5-(7-methoxy-5-methyl-1-benzothiophen-2-yl)-7-(piperazin-1-ylmethyl)pyrrolo[2,1-f][1,2,4]triazin-4-amine trihydrochloride] | 2.8 nM | 21.1% | 6.4 nM |  | 
CCNCc1c(-c2cc3cc(C)cc(OC)c3s2)c2c(N)ncnn2c1CN1CCNCC1 [Example 38, 6-[(Ethylamino)methyl]-5-(7-methoxy-5-methyl-1-benzothiophen-2-yl)-7-(piperazin-1-ylmethyl)pyrrolo[2,1-f][1,2,4]triazin-4-amine trihydrochloride] | 6.9 nM | 20.8% |  |  | 
COc1cc(C)cc2cc(-c3c(CNCCO)c(CN4CCNCC4)n4ncnc(N)c34)sc12 [Example 39, 2-({[4-Amino-5-(7-methoxy-5-methyl-1-benzothiophen-2-yl)-7-(piperazin-1-ylmethyl)pyrrolo[2,1-f]-[1,2,4]triazin-6-yl]methyl}amino)ethanol trihydrochloride] | 1.1 nM | 11.5% | 4.9 nM |  | 
COc1cc(C)cc2cc(-c3c(CNC4CCC4)c(CN4CCNCC4)n4ncnc(N)c34)sc12 [Example 44, 6-[(Cyclobutylamino)methyl]-5-(7-methoxy-5-methyl-1-benzothiophen-2-yl)-7-(piperazin-1-ylmethyl)pyrrolo[2,1-f][1,2,4]triazin-4-amine trihydrochloride] | 2.1 nM | 13.3% |  |  | 
COc1cc(C)cc2cc(-c3c(CN4CCCC4)c(CN4CCNCC4)n4ncnc(N)c34)sc12 [Example 45, 5-(7-Methoxy-5-methyl-1-benzothiophen-2-yl)-7-(piperazin-1-ylmethyl)-6-(pyrrolidin-1-ylmethyl)pyrrolo[2,1-f][1,2,4]triazin-4-amine trihydrochloride] | 3.4 nM | 15.5% | 9.7 nM |  | 
COc1cc(C)cc2cc(-c3c(CNC4CC4)c(CN4CCNCC4)n4ncnc(N)c34)sc12 [Example 46, 6-[(Cyclopropylamino)methyl]-5-(7-methoxy-5-methyl-1-benzothiophen-2-yl)-7-(piperazin-1-ylmethyl)pyrrolo[2,1-f][1,2,4]triazin-4-amine trihydrochloride] | 3.2 nM | 11% | 8.1 nM |  | 
COc1cc(C)cc2cc(-c3c(CNCC4CC4)c(CN4CCNCC4)n4ncnc(N)c34)sc12 [Example 47, 6-{[(Cyclopropylmethyl)amino]methyl}-5-(7-methoxy-5-methyl-1-benzothiophen-2-yl)-7-(piperazin-1-ylmethyl)pyrrolo[2,1-f][1,2,4]triazin-4-amine trihydrochloride] | 1.7 nM | 14.7% | 3.4 nM |  | 
COc1cc(C)cc2cc(-c3c(-c4cnco4)c(CN4CCNCC4)n4ncnc(N)c34)sc12 [Example 61, 5-(7-Methoxy-5-methyl-1-benzothiophen-2-yl)-6-(1,3-oxazol-5-yl)-7-(piperazin-1-ylmethyl)pyrrolo[2,1-f][1,2,4]triazin-4-amine trihydrochloride] |  | 15.9% | 0.9 nM |  | 
COc1cc(C)cc2cc(-c3c(CN)c(CN4CCNCC4)n4ncnc(N)c34)sc12 [Example 62, 6-(Aminomethyl)-5-(7-methoxy-5-methyl-1-benzothiophen-2-yl)-7-(piperazin-1-ylmethyl)pyrrolo[2,1-f][1,2,4]triazin-4-amine trihydrochloride] | 3.1 nM | 0.2% | 11 nM |  | 
COc1cc(C)cc2cc(-c3c(CNC(C)=O)c(CN4CCNCC4)n4ncnc(N)c34)sc12 [Example 64, N-{[4-Amino-5-(7-methoxy-5-methyl-1-benzothiophen-2-yl)-7-(piperazin-1-ylmethyl)pyrrolo[2,1-f][1,2,4]triazin-6-yl]methyl}acetamide dihydrochloride] | 1 nM | 1.1% | 2.9 nM |  | 
COc1cc(C)cc2cc(-c3c(CO)c(C)n4ncnc(N)c34)sc12 [Example 75, [4-Amino-5-(7-methoxy-5-methyl-1-benzothiophen-2-yl)-7-methylpyrrolo[2,1-f][1,2,4]triazin-6-yl]-methanol] |  | 10.2% |  | 1.5 nM | 
COc1cc(C)cc2cc(-c3c(CN4CCNC(=O)C4)c(C)n4ncnc(N)c34)sc12 [Example 76, 4-{[4-Amino-5-(7-methoxy-5-methyl-1-benzothiophen-2-yl)-7-methylpyrrolo[2,1-f][1,2,4]triazin-6-yl]methyl}piperazin-2-one] |  | 8.5% |  | 1.5 nM | 
COc1cc(C)cc2cc(-c3c(CNCC(C)(C)O)c(C)n4ncnc(N)c34)sc12 [Example 77, 1-({[4-Amino-5-(7-methoxy-5-methyl-1-benzothiophen-2-yl)-7-methylpyrrolo[2,1-f][1,2,4]triazin-6-yl]methyl}amino)-2-methylpropan-2-ol formiate] |  |  |  | 3.2 nM | 0.7%
COc1cc(C)cc2cc(-c3c(CO)c(Cl)n4ncnc(N)c34)sc12 [Example 79, [4-Amino-7-chloro-5-(7-methoxy-5-methyl-1-benzothiophen-2-yl)pyrrolo[2,1-f][1,2,4]triazin-6-yl]-methanol] |  | 14.7% |  | 3.5 nM | 
COc1cc(C)cc2cc(-c3c(CNCC(C)(C)O)c(Cl)n4ncnc(N)c34)sc12 [Example 81, 1-({[4-Amino-7-chloro-5-(7-methoxy-5-methyl-1-benzothiophen-2-yl)pyrrolo[2,1-f][1,2,4]triazin-6-yl]methyl}amino)-2-methylpropan-2-ol formiate] |  | 4.1% |  | 1.6 nM | 
COc1cc(C)cc2cc(-c3c(C)c(CN4CCNCC4)n4ncnc(N)c34)sc12 [Example 84, 5-(7-Methoxy-5-methyl-1-benzothiophen-2-yl)-6-methyl-7-(piperazin-1-ylmethyl)pyrrolo[2,1-f][1,2,4]triazin-4-amine formiate] |  | 9.1% |  | 46.6 nM | 
